Source: patent publication US20250059232A1, “PENTAPEPTIDE AND USE THEREOF” (ENSOL BIOSCIENCES INC., priority 2021, published 2025)

Legend:
4T1 cells = test: Syngeneic model implanted with paclitaxel-resistant 4T1 cells: tumor volume, Western blot of cleaved PARP and LC3II; type: in vivo, mouse; conditions: paclitaxel only
Protocol: Cell death and autophagy marker changes were determined by the Western blot method, using a syngeneic model implanted with 4T1 cells (American Type Culture Collection (ATCC)), which are mouse triple negative breast cancer tumor cells resistant to paclitaxel. The drug administration was started, when the tumor volume was reached to 70 mm^3 after a fat pad of Balb/c mice (6 weeks old, female) was transplanted with 4T1 cells in a concentration of 1×10^6 cells/head. For Week 1, paclitaxel 20 mg/kg was administered on Day 1 and Day 2, and the peptide (10, 100 mg/kg) of Example 1 was co-administered on Day 3, Day 5, and Day 7. In addition, the same process was performed for each of Week 2, and Week 3 (n=3). The tumor volumes were measured daily because the tumors grew very quickly. The changes in cleaved PARP, which is a cell death marker, and the changes in LC3II, which is an autophagy marker, in tumors were analyzed after necropsy on the day after the end of the 3-week administration, by a Western blot test.
FIG. 5 is a graph illustrating the results of tumor volume measurements according to the number of days after treatment in animal experimentation. In FIG. 5, the x-axis represents the number of days elapsed after treatment and the y-axis represents the tumor volume change (mm^3).
In addition, the changes in cleaved PARP, which is a cell death marker, are shown in FIG. 6, and the changes in LC3II, which is an autophagy marker, are shown in FIG. 7. FIG. 6 is a graph showing the changes in expression of cleaved PARP, which is a cell death marker, for each treatment group in animal experimentation, and FIG. 7 is a graph showing the changes in expression of LC3II, which is an autophagy marker, for each treatment group in animal experimentation.

MDA-MB-231 [1] = test: MDA-MB-231 fat pad xenograft in athymic nude mouse: tumor volume and weight; type: in vivo, human; conditions: paclitaxel only
Protocol: 5×10^6 cells/head of the human triple negative breast cancer cell line MDA-MB-231 (American Type Culture Collection (ATCC)) were mixed with Matrigel and PBS (1:1). 100 ul of the mixture was injected into the right third fat pad of 7-week-old female athymic nude mouse. After the transplantation, drug administration started from an average tumor size of 80 mm^3. Paclitaxel 20 mg/kg was administered on Day 0 and on Day 1. That is, the paclitaxel 20 mg/kg was administered a total of two times. Then, the peptide of Example 1 was administered in a dose of 100 mg/kg on Day 2, Day 4, and Day 6. That is, the peptide of Example 1 was administered a total of three times. Tumor volumes were measured 3 times a week for 3 weeks after administration of the first dose. Tumor weights were measured by necropsy after the end of the experiment. For each group, ten mice were used.
Tumor volume changes over time for each group are shown in FIG. 8, and tumor weight on the eighteenth day after the administration of the first dose for each group is shown in FIG. 9. FIG. 8 is a graph illustrating the changes in tumor volume over time after sample administration in animal experimentation. In FIG. 8, the x-axis represents the number of days elapsed after the start of administration and the y-axis represents the tumor volume change (mm^3). FIG. 9 is a graph illustrating a tumor weight for each test group in animal experimentation. In FIG. 9, the x-axis represents test groups and the y-axis represents tumor weights (mg).

MDA-MB-231 [2] = test: MDA-MB-231 xenograft in BalB/c nude mouse: survival rate; type: in vivo; conditions: paclitaxel only
Protocol: To investigate survival rates of the paclitaxel-only administration group and the group co-administered with paclitaxel and the peptide of Example 1, experiments described below were performed. 5×10^6 cells/head of the human triple negative breast cancer cell line MDA-MB-231 were mixed with Matrigel and PBS (1:1). 100 ul of the mixture was injected into the right third fat pad of 7-week-old female BalB/c nude mouse. After the transplantation, drug administration started from an average tumor size of 70 mm^3. Paclitaxel 20 mg/kg was administered once weekly, and the peptide 100 mg/kg of Example 1 was administered subcutaneously 3 times weekly at 48-hour intervals, 48 hours after the paclitaxel administration. Each test group was administered for 12 weeks and animal survival was observed daily. FIG. 10 is a graph illustrating survival rates over time after sample administration in animal experimentation. In FIG. 10, the x-axis represents the elapsed time (days) after administration and the y-axis represents survival rates (%). […] In the case of the group co-administered with the peptide of Example 1, the first deceased mouse occurred on Day 60 of administration.

[3] = Stability test: HPLC relative purity of peptide dissolved in buffer, by pH and temperature; type: physicochemical
Protocol: For Example 1 and Comparative Example 1, stability tests according to pH for each temperature were performed.
Stability tests for each peptide were performed by liquid chromatography purity analysis for each temperature and each pH according to analysis timing (initial, 24 hours, 130 hours). […] Samples were analyzed by injecting 20 ul of each sample with an auto-sample injector, and the analysis column was Inspire C18 (4.6×250 mm, […], 12 nm) manufactured by Dikma. The analysis temperature was 40° C., and a UV wavelength of 215 nm was used.
On the basis of the HPLC analysis results, relative purity was calculated for Comparative Example 1 and Example 1 for each storage condition. The relative purity is the percentage of measured purity changing according to the storage period, with the initial purity being set to 100% for each sample. FIGS. 1 and 2 are graphs showing the results of stability tests for Example and Comparative Example stored at a temperature of 25° C., in which FIG. 1 is a graph of a test result for 24 hours of storage, and FIG. 2 is a graph of a test result for 130 hours of storage. FIGS. 3 and 4 are graphs showing the results of stability tests for Example and Comparative Example stored at 40° C., in which FIG. 3 is a graph of a test result for 24 hours of storage, and FIG. 4 is a graph of a test result for 130 hours of storage. In each graph, the x-axis represents the test group by pH and the y-axis represents the relative purity […].

[4] = eighteenth day after first dose

In the case of `CC(=O)O[C@H]1C(=O)[C@@]2(C)[C@H]([C@H](OC(=O)c3ccccc3)[C@]3(O)C[C@H](OC(=O)[C@H](O)[C@@H](NC(=O)c4ccccc4)c4ccccc4)C(C)=C1C3(C)C)[C@]1(OC(C)=O)CO[C@@H]1C[C@@H]2O` [paclitaxel, reference compound], the “Reduction in tumor volume compared to the control group” value (4T1 cells; 20 mg/kg, Balb/c mice) is reported as “insignificant reduction in tumor volume”, the “Increase in LC3II expression level in tumor compared to control group” value (4T1 cells; Western blot after 3-week administration) is reported as 2.4 fold and the “CR (mice in which the tumor disappeared)” value (MDA-MB-231 [1]; 20 mg/kg Day 0 and Day 1, ten mice) is reported as 10%. The “Reduction in tumor volume compared to control group” value (MDA-MB-231 [1]; [4]) was 33%, the “Reduction in tumor weight compared to control group” value (MDA-MB-231 [1]; [4]) was 34.5% and the “Day on which the tumor disappeared” value (MDA-MB-231 [1]; one mouse) was 16 days. The “Day of administration on which the first deceased mouse occurred” value (MDA-MB-231 [2]; 20 mg/kg once weekly) was 21 days and the “Survival rate after the end of the experiment” value (MDA-MB-231 [2]; 12 weeks) was 30%.
In the case of “QLHLD [Comparative Example 1, reference compound]”, the “Stability (summary in words)” value ([3]; liquid state, pH 2-9, 25 and 40° C., up to 130 hours) is reported as “in some cases, the samples were not stable”, the Relative purity ([3]; pH 2, 25 ± 2° C., RH 60 ± 5%, storage 0 hours (initial set to 100%)) is reported as 100.0% and the Relative purity ([3]; pH 2, 25 ± 2° C., RH 60 ± 5%, storage 24 hours) is reported as 79.0%. It also gave a Relative purity ([3]; pH 2, 25 ± 2° C., RH 60 ± 5%, storage 130 hours) of 25.0%, a Relative purity ([3]; pH 2, 40 ± 2° C., RH 75 ± 5%, storage 0 hours (initial set to 100%)) of 100.0% and a Relative purity ([3]; pH 2, 40 ± 2° C., RH 75 ± 5%, storage 24 hours) of 27.6%. For the same compound, the Relative purity ([3]; pH 2, 40 ± 2° C., RH 75 ± 5%, storage 130 hours) was 0.3%, the Relative purity ([3]; pH 5, 25 ± 2° C., RH 60 ± 5%, storage 0 hours (initial set to 100%)) was 100.0% and the Relative purity ([3]; pH 5, 25 ± 2° C., RH 60 ± 5%, storage 24 hours) was 77.9%. The Relative purity ([3]; pH 5, 25 ± 2° C., RH 60 ± 5%, storage 130 hours) was 21.7%, the Relative purity ([3]; pH 5, 40 ± 2° C., RH 75 ± 5%, storage 0 hours (initial set to 100%)) was 100.0% and the Relative purity ([3]; pH 5, 40 ± 2° C., RH 75 ± 5%, storage 24 hours) was 21.8%. For the same compound, the Relative purity ([3]; pH 5, 40 ± 2° C., RH 75 ± 5%, storage 130 hours) was 0.1%, the Relative purity ([3]; pH 7, 25 ± 2° C., RH 60 ± 5%, storage 0 hours (initial set to 100%)) was 100.0% and the Relative purity ([3]; pH 7, 25 ± 2° C., RH 60 ± 5%, storage 24 hours) was 28.5%. For the same compound, the Relative purity ([3]; pH 7, 25 ± 2° C., RH 60 ± 5%, storage 130 hours) was 0.1%, the Relative purity ([3]; pH 7, 40 ± 2° C., RH 75 ± 5%, storage 0 hours (initial set to 100%)) was 100.0% and the Relative purity ([3]; pH 7, 40 ± 2° C., RH 75 ± 5%, storage 24 hours) was 0.2%. It also gave a Relative purity ([3]; pH 7, 40 ± 2° C., RH 75 ± 5%, storage 130 hours) of 0.0%, a Relative purity ([3]; pH 9, 25 ± 2° C., RH 60 ± 5%, storage 0 hours (initial set to 100%)) of 100.0% and a Relative purity ([3]; pH 9, 25 ± 2° C., RH 60 ± 5%, storage 24 hours) of 50.2%. For the same compound, the Relative purity ([3]; pH 9, 25 ± 2° C., RH 60 ± 5%, storage 130 hours) was 2.4%, the Relative purity ([3]; pH 9, 40 ± 2° C., RH 75 ± 5%, storage 0 hours (initial set to 100%)) was 100.0% and the Relative purity ([3]; pH 9, 40 ± 2° C., RH 75 ± 5%, storage 24 hours) was 8.5%. The Relative purity ([3]; pH 9, 40 ± 2° C., RH 75 ± 5%, storage 130 hours) was 0.0%.
